The text below walks through data of patent US7094760B2, “Peptides for treatment of inflammation and shock” (Salpep Biotechnology, Inc., priority 1996, dated 2006).

Ends that are not written are not given here.

The subject of experiment [1] is jejunal segments from ovalbumin-sensitized rats. Description: antigen-induced jejunal segment contraction, URE/OA ratio, Example 7. Details: species or system rat. As to conditions: 10 μg peptide; for URE/OA: 100 ng OA, 20 μg urecholine. The procedure:
Animals and Tissue Preparation: Male Sprague-Dawley rats were sensitized to egg albumin (ovalbumin, OA) with 50 ng of Pertussis bordetella toxin as an adjuvant. Four to six weeks after sensitization, the rats were anaethetised with sodium pentobarbital and the jejunum was removed. Two cm sections of the jejunum were mounted in tissue baths under 0.75 g of isometric tension, and the tissues were allowed to equilibrate for 20 min prior to beginning the experiment.
10 μg of SGP-T or one of its analogues or fragments was added to a bath, while control tissues received the saline vehicle. Following a 10 min incubation, 100 ng of OA prepared in 0.9% saline was added. After the tissue had reached a maximal contractile response, the tissues were washed extensively to remove OA and peptide and, after the tissues had established baseline tension, 20 μg of urecholine (URE; a cholinergic-muscarinic receptor agonist) was added to determine the maximal contractile response of the tissue. The tissues were then removed from the bath, cleared of all underlying mucosa and the weight of the remaining muscle was determined.
Data Analysis: The tension (measured in grams) per gram tissue weight generated by each tissue in response to OA and URE was calculated. To normalize for differences in the ability of each tissue segment to contract in response to the muscle stimulants, the contractile response to […]. Thus, a measure of the antigen-induced contraction was expressed as the URE/OA ratio.
The data was analyzed using the one-way analysis of variance (ANOVA) and differences between groups was determined using the Student t-test for unpaired samples. The results are shown in FIGS. 7 and 8 and Tables 3 and 4.

In experiment [2] the test system is isolated jejunal segments from egg albumin-sensitised rats. Description: antigen-induced contraction of isolated jejunal segments, Examples 3 and 6. Details: species or system rat; key to Biological Activity = inhibition of antigen-induced jejunal contraction by test peptide: +++ = highest inhibition (~60%); ++ = moderate inhibition (~40%); + = lowest inhibition (~20%); − = no inhibition. The procedure:
SGP-T, at doses as low as 6.8×10^−7M, reduced antigen induced contractions of these isolated intestinal tissues by 60% (data not shown).
Analogues and fragments of SGP-T were tested for their ability to inhibit antigen (egg albumin)-induced intestinal contractions, using isolated jejunal segments from egg albumin-sensitised rats, as described in Example 3.

Experiment [3] has as its system LPS (Salmonella typhosa)-induced hypotension in unoperated rats. Description: endotoxin (LPS)-induced hypotension, unoperated rats. Type of experiment: in vivo, rat. As for the experimental part:
(§1) The animal model of endotoxic shock used involves intravenous injection of endotoxin (3.5 mg/kg of lipopolysaccharide (LPS) from Salmonella typhosa) into pentobarbital-anaesthetized Sprague-Dawley rats, to produce a fall in mean arterial blood pressure within 3 to 5 minutes. The endotoxin was injected slowly over 1 min. via the jugular vein, and mean arterial blood pressure in mm mercury (MABP) was monitored continuously for 60 min, with the average blood pressure being calculated at 15, 30, 45 and 60 min. Studies were performed on unoperated rats and rats with their submandibular glands removed (sialadenectomized).
(§2) The results shown in Table 1 are the averages of three different experiments using the protocol defined above. The data shown represent the average decrease in MABP (dec MABP) and the % Decrease in MABP over the 60 minutes following LPS administration. SGP-S (100μg/kg) and SGP-T (100 μg/kg) were administered 90 min. before LPS. […] Neither SGP-T nor SGP-S, when given prior to the LPS challenge, had appreciable effects on MABP.
Overall, SGP-T reduced by 60% the decrease and the percent decrease in MABP induced by endotoxin, relative to pre-LPS values. SGP-S, on the other hand, had no effect on the shock induced by endotoxin in unoperated rats.
(§3) The dose-response relationship of the inhibitory effect of SGP-T and SGP-S on endotoxin-induced hypotension was also examined and the results are shown in FIG. 1.

Experiment [4] relates to LPS (Salmonella typhosa)-induced hypotension in sialadenectomized rats. Nature of the experiment: endotoxin (LPS)-induced hypotension, sialadenectomized rats. It counts as in vivo, rat. The procedure:
as §1, §2, §3

Where [5] appears, read: peptide 100 μg/kg 90 min before LPS 3.5 mg/kg iv.

Regarding FE-Proline, in experiment [1], the “anti-anaphylactic activity in jejunal assay, in words” value (“anti-anaphylactic activity” for short) is listed as “loss of biological activity”. In addition, the URE/OA in experiment [1] (Table 4, saline 5.7 ± 1.0) amounted to 6.2 ± 1.3.
Regarding FEGGG [T6], the “Biological Activity = inhibition of antigen-induced jejunal contraction by test peptide” value (“Biological Activity = inhibition” for short) in experiment [2] is on record as “++ (++ = moderate inhibition (~40%))”. For the same substance, the “anti-anaphylactic activity” value in experiment [1] is “no effect on activity”. The URE/OA in experiment [1] (Table 3, saline 4.0 ± 0.4) is listed as 10.7 ± 2.0.
In the case of FEG, the “Biological Activity = inhibition” value in experiment [2] was “++ (++ = moderate inhibition (~40%))”.
“NH2-Ser-Gly-Glu-Gly-Val-Arg-COOH (H-SGEGVR-OH) [SGP-S, submandibular gland peptide S, SGEGVR]”: in experiment [3], the “effect on drop in MABP / shock induced by endotoxin” value was “no effect”. In experiment [3] (setting [5]), the “% Dec = percent decrease in MABP relative to MABPbef” value is listed as −22.9 ± 1.3%, the “MABPaft = average MABP for 60 mins after LPS injection” value turned out to be 95.2 ± 4.3 mm Hg and the “dec MABP = decrease in MABP after LPS relative to MABPbef” value was −28.1 ± 1.8 mm Hg. For the same substance, in experiment [4], the “effect on drop in MABP after LPS” value is reported as “significantly reduced the drop in MABP”. For the same substance, in experiment [4] (setting [5]), the “% Dec = percent decrease in MABP relative to MABPbef” value was −32.3 ± 3.9 %, the “MABPaft = average MABP for 60 mins after LPS injection” value is listed as 81.6 ± 5.8 mm Hg and the “dec MABP = decrease in MABP after LPS relative to MABPbef” value is reported as −37.6 ± 4.4 mm Hg.
As for “TDIFEGG-NH2 [T5, SGP-T with amidated terminal glycine]”, the “Biological Activity = inhibition” value in experiment [2] was “−”. For the same substance, the “anti-anaphylactic activity” value in experiment [1] is “abolished anti-anaphylactic activity”. Moreover, the URE/OA in experiment [1] (Table 3, saline 4.0 ± 0.4) stood at 4.3 ± 0.7.
The corresponding values for “TDAFEGG [T10, alanine analogue of SGP-T]” are “+ (+ = lowest inhibition (~20%))”, “minimal effect on prevention of anaphylaxis” and 8.3 ± 1.9.
ADIFEGG [T3, alanine analogue of SGP-T]: the “Biological Activity = inhibition” value in experiment [2] was “−”. In addition, in experiment [1] (Table 3, saline 4.0 ± 0.4), the URE/OA is listed as 3.6 ± 0.9.
As to TDIFAGG [T9, alanine analogue of SGP-T], the “Biological Activity = inhibition” value in experiment [2] is given as “−”. Besides, in experiment [1] (Table 3, saline 4.0 ± 0.4), the URE/OA stood at 7.2 ± 1.1.
Turning to FE-Sarcosine, the URE/OA in experiment [1] (Table 4, saline 5.7 ± 1.0) was 10.0 ± 1.6.
Consider FE-Citrulline, for which the “anti-anaphylactic activity” value in experiment [1] is “loss of biological activity”. The URE/OA in experiment [1] (Table 4, saline 5.7 ± 1.0) was 5.0 ± 1.1.
For TDIFE [T4], the “Biological Activity = inhibition” value in experiment [2] is given as “−”. Besides, the “anti-anaphylactic activity” value in experiment [1] is “abolished anti-anaphylactic activity”. Moreover, the URE/OA in experiment [1] (Table 3, saline 4.0 ± 0.4) is 1.7 ± 0.3.
The corresponding values for TAIFEGG [T7, alanine analogue of SGP-T] are “+++ (+++ = highest inhibition (~60%))”, “minimal effect on prevention of anaphylaxis” and 12.3 ± 2.2.
Regarding STDIFEGG [T2, analogue of SGP-T], in experiment [2], the “Biological Activity = inhibition” value was “−”. Besides, in experiment [1] (Table 3, saline 4.0 ± 0.4), the URE/OA is listed as 3.58 ± 1.07.
For “TDIAEGG [T11, alanine analogue of SGP-T]”, in that order: “−” and 5.2 ± 1.2.
